{"source": "ChEMBL document CHEMBL5441381", "about": "“ASAP - In vitro antiviral effect” (2024)", "key": {"[1]": {"system": "SARS-CoV-2", "experiment": "(§1) Functional immunofluorescence assay to measure dose dependent changes in antiviral-drug inhibitory efficacy against hCoV-19/USA-WA1/2020 in iPSC-Pneumocyte cells which are seeded prior to treatment, then infected with hCoV-19/USA-WA1/2020. Cells are fixed with 10 % formaldehyde, washed with PBS, permeabilized with permeabilization buffer, then washed with wash buffer. The cells are incubated with nucleoprotein primary antibody IC7C7. Following primary staining, cells are washed with wash buffer and incubated in a solution of with Alexa fluor 488 and DAPI. Infected and uninfected cells are visualized and analyzed by Gen5 software. The assay has been performed by Icahn School of Medicine at Mount Sinai.", "assay_type": "organism-based, Homo sapiens", "conditions": "Severe acute respiratory syndrome coronavirus 2, Pneumocyte; for EC90: Baseline response 0 %, Maximum response 100 %"}, "[2]": {"system": "SARS-CoV-2", "experiment": "as §1, with “hCoV-19/USA-WA1/2020 in HeLa-ACE2 cells which” for “hCoV-19/USA-WA1/2020 in iPSC-Pneumocyte cells which”, “prior to drug treatment, then” for “prior to treatment, then”", "assay_type": "organism-based, Homo sapiens"}, "[3]": {"conditions": "Severe acute respiratory syndrome coronavirus 2, HeLa-ACE2"}}, "data": [{"smiles": "CC(C)[C@@H](Nc1ncnc2[nH]c(-c3cnn(C)c3)cc12)c1ccc2c(c1)S(=O)(=O)CCC2", "values": [{"measurement": "EC50", "setting": "[1]", "value": 7.59, "unit": "µM"}, {"measurement": "EC90", "setting": "[1]; Hill slope -0.905, Maximum measured 103.795 %, Minimum measured 0.206 %, R squared 0.828", "value": "> 50", "unit": "µM"}, {"measurement": "EC50", "setting": "[2]; [3]", "value": "> 20", "unit": "µM"}, {"measurement": "EC90", "setting": "[2]; Severe acute respiratory syndrome coronavirus 2, HeLa-ACE2, Baseline response 0 %, Hill slope -10.363, Maximum measured 119.22 %, Maximum response 100 %, Minimum measured 72.714 %, R squared 0.37", "value": "> 20", "unit": "µM"}]}, {"smiles": "Cc1ncc(-c2cc3c(N[C@@H](c4ccc5c(c4)OCCO5)C(C)C)ncnc3[nH]2)cn1", "values": [{"measurement": "EC50", "setting": "[1]", "value": 15.7, "unit": "µM"}, {"measurement": "EC90", "setting": "[1]; EC90 CI (lower) 1.051 uM, EC90 CI (upper) 45.178 uM, Hill slope -2.659, Maximum measured 160.084 %, Minimum measured 9.251 %, R squared 0.626", "value": 36, "unit": "µM"}, {"measurement": "EC50", "setting": "[2]; [3]", "value": 4.51, "unit": "µM"}, {"measurement": "EC90", "setting": "[2]; Severe acute respiratory syndrome coronavirus 2, HeLa-ACE2, Baseline response 0 %, Hill slope -0.659, Maximum measured 95.537 %, Maximum response 100 %, Minimum measured 29.329 %, R squared 0.973", "value": "> 20", "unit": "µM"}, {"measurement": "EC90", "setting": "[2]; Severe acute respiratory syndrome coronavirus 2, HeLa-ACE2, Baseline response 0 %, Hill slope -1.195, Maximum measured 100.014 %, Maximum response 100 %, Minimum measured 14.25 %, R squared 0.982", "value": "> 20", "unit": "µM"}, {"measurement": "EC50", "setting": "[2]; hela-ace2", "value": 4.51, "unit": "µM"}]}, {"smiles": "CC(C)[C@@H](Nc1ncnc2[nH]c(-c3cnn(CC(N)=O)c3)cc12)c1ccc2c(n1)OCCO2", "values": [{"measurement": "EC50", "setting": "[1]", "value": "> 50", "unit": "µM"}, {"measurement": "EC90", "setting": "[1]; Hill slope -0.097, Maximum measured 94.962 %, Minimum measured 56.467 %, R squared 0.078", "value": "> 50", "unit": "µM"}, {"measurement": "EC50", "setting": "[2]; [3]", "value": "> 20", "unit": "µM"}, {"measurement": "EC90", "setting": "[2]; Severe acute respiratory syndrome coronavirus 2, HeLa-ACE2, Maximum measured 122.738 %, Minimum measured 101.22 %", "value": "> 20", "unit": "µM"}]}, {"smiles": "CNC(=O)Cn1cc(-c2cc3c(N[C@H](c4ccc5c(c4)S(=O)(=O)CCC5)C(C)C)ncnc3[nH]2)cn1", "values": [{"measurement": "EC50", "setting": "[1]", "value": "> 50", "unit": "µM"}, {"measurement": "EC90", "setting": "[1]; Hill slope -0.24, Maximum measured 106.027 %, Minimum measured 60.326 %, R squared 0.31", "value": "> 50", "unit": "µM"}, {"measurement": "EC50", "setting": "[2]; [3]", "value": "> 20", "unit": "µM"}, {"measurement": "EC90", "setting": "[2]; Severe acute respiratory syndrome coronavirus 2, HeLa-ACE2, Baseline response 0 %, Hill slope 0.543, Maximum measured 108.143 %, Maximum response 100 %, Minimum measured 92.194 %, R squared 0.052", "value": "> 20", "unit": "µM"}]}, {"smiles": "CC(C)(C)[C@@H](Nc1ncnc2[nH]c(-c3cnn(CC(N)=O)c3)cc12)c1ccc2c(n1)OCCO2", "values": [{"measurement": "EC50", "setting": "[1]", "value": 11.4, "unit": "µM"}, {"measurement": "EC90", "setting": "[1]; Hill slope -0.772, Maximum measured 91.919 %, Minimum measured 11.328 %, R squared 0.786", "value": "> 50", "unit": "µM"}, {"measurement": "EC50", "setting": "[2]; [3]", "value": "> 20", "unit": "µM"}, {"measurement": "EC90", "setting": "[2]; Severe acute respiratory syndrome coronavirus 2, HeLa-ACE2, Maximum measured 115.43 %, Minimum measured 93.464 %", "value": "> 20", "unit": "µM"}]}, {"smiles": "CC(C)[C@@H](Nc1ncnc2[nH]c(C(N)=O)cc12)c1ccc2c(c1)OCCO2", "values": [{"measurement": "EC50", "setting": "[1]", "value": "> 50", "unit": "µM"}, {"measurement": "EC90", "setting": "[1]; Hill slope -3.392, Maximum measured 162.718 %, Minimum measured 51.066 %, R squared 0.094", "value": "> 50", "unit": "µM"}, {"measurement": "EC50", "setting": "[2]; [3]", "value": "> 20", "unit": "µM"}, {"measurement": "EC90", "setting": "[2]; Severe acute respiratory syndrome coronavirus 2, HeLa-ACE2, Maximum measured 95.443 %, Minimum measured 3.395 %", "value": "> 20", "unit": "µM"}, {"measurement": "EC90", "setting": "[2]; Severe acute respiratory syndrome coronavirus 2, HeLa-ACE2, Maximum measured 108.483 %, Minimum measured 88.736 %", "value": "> 20", "unit": "µM"}]}, {"smiles": "CC(C)[C@@H](Nc1ncnc2[nH]c(-c3cnn(C)c3C#N)cc12)c1ccc2c(c1)S(=O)(=O)CCC2", "values": [{"measurement": "EC50", "setting": "[1]", "value": 0.411, "unit": "µM"}, {"measurement": "EC90", "setting": "[1]; EC90 CI (lower) 0.002 uM, EC90 CI (upper) 0.075 uM, Hill slope -0.637, Maximum measured 75.192 %, Minimum measured 0.111 %, R squared 0.781", "value": 13, "unit": "µM"}, {"measurement": "EC50", "setting": "[2]; [3]", "value": 3.51, "unit": "µM"}, {"measurement": "EC90", "setting": "[2]; Severe acute respiratory syndrome coronavirus 2, HeLa-ACE2, Baseline response 0 %, EC90 CI (lower) 0.517 uM, EC90 CI (upper) 1.693 uM, Hill slope -1.661, Maximum measured 114.163 %, Maximum response 100 %, Minimum measured 4.545 %, R squared 0.935", "value": 13.2, "unit": "µM"}]}, {"smiles": "CC(C)[C@@H](Nc1ncnc2[nH]c(-c3cnn(C)n3)cc12)c1ccc2c(c1)OCCO2", "values": [{"measurement": "EC50", "setting": "[1]", "value": 13.3, "unit": "µM"}, {"measurement": "EC90", "setting": "[1]; EC90 CI (lower) 0.166 uM, EC90 CI (upper) 294.285 uM, Hill slope -3.414, Maximum measured 157.709 %, Minimum measured 4.934 %, R squared 0.471", "value": 25.3, "unit": "µM"}, {"measurement": "EC50", "setting": "[2]; [3]", "value": 5.33, "unit": "µM"}, {"measurement": "EC90", "setting": "[2]; Severe acute respiratory syndrome coronavirus 2, HeLa-ACE2, Baseline response 0 %, Hill slope -0.7, Maximum measured 92.76 %, Maximum response 100 %, Minimum measured 27.109 %, R squared 0.91", "value": "> 20", "unit": "µM"}, {"measurement": "EC90", "setting": "[2]; Severe acute respiratory syndrome coronavirus 2, HeLa-ACE2, Baseline response 0 %, Hill slope -0.882, Maximum measured 101.658 %, Maximum response 100 %, Minimum measured 24.481 %, R squared 0.934", "value": "> 20", "unit": "µM"}, {"measurement": "EC50", "setting": "[2]; hela-ace2", "value": 6.65, "unit": "µM"}]}, {"smiles": "CC(C)[C@@H](Nc1ncnc2[nH]c(-c3cnn(CC(N)=O)c3)cc12)c1ccc2c(c1)OCCO2", "values": [{"measurement": "EC50", "setting": "[1]", "value": 37.1, "unit": "µM"}, {"measurement": "EC90", "setting": "[1]; Hill slope -4.011, Maximum measured 96.462 %, Minimum measured 23.083 %, R squared 0.242", "value": "> 50", "unit": "µM"}, {"measurement": "EC50", "setting": "[2]; [3]", "value": "> 50", "unit": "µM"}, {"measurement": "EC90", "setting": "[2]; Severe acute respiratory syndrome coronavirus 2, HeLa-ACE2, Baseline response 0 %, Hill slope -10.038, Maximum measured 122.799 %, Maximum response 100 %, Minimum measured 73.654 %, R squared 0.191", "value": "> 50", "unit": "µM"}]}]}
